Results reported in US8114991B2, “Amino-1,3,5-triazines N-substituted with chiral bicyclic radicals, process for their preparation, compositions thereof, and their use as herbicides and plant growth regulators” (Bayer Cropscience AG, priority 2003, dated 2012).

Assays:
[1] = system: harmful plants such as Sinapis alba, Echinochloa crus-galli, Lolium multiflorum, Stellaria media, Cyperus iria, Amaranthus retroflexus, Setaria viridis, Avena …; assay: Post-emergence effect on weeds (greenhouse pot test); format: in vivo; details: application rate of 2 kg or less of active ingredient per hectare; treated in the three-leaf stage; scored after approx. 3 to 4 weeks by comparison with untreated controls
[2] = system: harmful plants such as Stellaria media, Lolium multiforum, Amaranthus retroflexus, Sinapis alba, Avena sativa and Setaria viridis; assay: Pre-emergence effect on weeds (greenhouse pot test); format: in vivo; details: application rate of 1 kg or less of active ingredient per hectare; scored after 3 to 4 weeks by comparison with untreated controls
Method in brief: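 Seeds or rhizome pieces sown in sandy loam; test compounds (wettable powder or emulsion concentrate) applied pre-emergence to soil surface as aqueous suspension/emulsion at various dosages, 600 to 800 l water/ha. Greenhouse; plant/emergence damage scored visually after 3 to 4 weeks versus untreated controls.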

| SMILES | herbicidal post-emergence activity against harmful plants (scored visually) [1] | pre-emergence control of harmful plants (plant or emergence damage scored visually) [2] |
| --- | --- | --- |
| Nc1nc(CCl)nc(N[C@@H]2CCCc3ccccc32)n1 [Compound 8.117] | very good herbicidal post-emergence activity | very good pre-emergence control |
| CC1(c2nc(N)nc(N[C@@H]3CCc4ccccc43)n2)CC1 [Compound 8.148] | very good herbicidal post-emergence activity | very good pre-emergence control |
| CC1(c2nc(N)nc(N[C@@H]3CCCc4ccccc43)n2)CC1 [Compound 8.152] | very good herbicidal post-emergence activity | very good pre-emergence control |
| Nc1nc(N[C@@H]2CCc3ccccc32)nc(C2(F)CC2)n1 [Compound 8.160] | very good herbicidal post-emergence activity | very good pre-emergence control |
| Nc1nc(N[C@@H]2CCCc3ccccc32)nc(C2(F)CC2)n1 [Compound 8.170] | very good herbicidal post-emergence activity | very good pre-emergence control |
| Nc1nc(N[C@@H]2CCc3ccccc32)nc(C2(Cl)CC2)n1 [Compound 8.183] | very good herbicidal post-emergence activity | very good pre-emergence control |
| Nc1nc(N[C@@H]2CCCc3ccccc32)nc(C2(Cl)CC2)n1 [Compound 8.187] | very good herbicidal post-emergence activity | very good pre-emergence control |
| CC(C)(F)c1nc(N)nc(N[C@@H]2CCc3ccccc32)n1 [Compound 8.195] | very good herbicidal post-emergence activity | very good pre-emergence control |
| Cc1ccc2c(c1)[C@H](Nc1nc(N)nc(C(C)(C)F)n1)CC2 [Compound 8.196] | very good herbicidal post-emergence activity | very good pre-emergence control |
| CC(C)(F)c1nc(N)nc(N[C@@H]2CCc3ccc(F)cc32)n1 [Compound 8.197] | very good herbicidal post-emergence activity | very good pre-emergence control |
| Cc1cc2c(cc1C)[C@H](Nc1nc(N)nc(C(C)(C)F)n1)CC2 [Compound 8.201] | very good herbicidal post-emergence activity | very good pre-emergence control |
| CC(C)(F)c1nc(N)nc(N[C@@H]2CCCc3ccccc32)n1 [Compound 8.205] | very good herbicidal post-emergence activity | very good pre-emergence control |
| Cc1ccc2c(c1)[C@H](Nc1nc(N)nc(C(C)(C)F)n1)CCC2 [Compound 8.206] | very good herbicidal post-emergence activity | very good pre-emergence control |
| Cc1cc(C)c2c(c1)[C@H](Nc1nc(N)nc(C(C)(C)F)n1)CCC2 [Compound 8.209] | very good herbicidal post-emergence activity | very good pre-emergence control |
| Cc1ccc2c(c1)[C@H](Nc1nc(N)nc(C(C)(C)F)n1)CCO2 [Compound 8.215] | very good herbicidal post-emergence activity | very good pre-emergence control |
| Cc1ccc2c(c1)[C@H](Nc1nc(N)nc(C(C)(C)Cl)n1)CC2 [Compound 8.219] | very good herbicidal post-emergence activity | very good pre-emergence control |
| CCCc1nc(N)nc(N[C@@H]2CCOc3ccc(C)cc32)n1 [Compound 8.231] | very good herbicidal post-emergence activity | very good pre-emergence control |
| COCc1nc(N)nc(N[C@@H]2CCc3ccccc32)n1 [Compound 8.233] | very good herbicidal post-emergence activity | very good pre-emergence control |
| COCc1nc(N)nc(N[C@@H]2CCCc3ccccc32)n1 [Compound 8.234] | very good herbicidal post-emergence activity | very good pre-emergence control |

| SMILES | herbicidal post-emergence activity against harmful plants (scored visually) [1] | pre-emergence control of harmful plants (plant or emergence damage scored visually) [2] |
| --- | --- | --- |
| CC(C)(F)c1nc(N)nc(N[C@@H]2CCOc3c(F)cccc32)n1 [Compound 8.237] | very good herbicidal post-emergence activity | very good pre-emergence control |
| Cc1nc(N)nc(N[C@@H]2CCOc3c(F)cccc32)n1 [Compound 8.238] | very good herbicidal post-emergence activity | very good pre-emergence control |
| CCc1nc(N)nc(N[C@@H]2CCOc3c(F)cccc32)n1 [Compound 8.239] | very good herbicidal post-emergence activity | very good pre-emergence control |
| CCCc1nc(N)nc(N[C@@H]2CCOc3c(F)cccc32)n1 [Compound 8.240] | very good herbicidal post-emergence activity | very good pre-emergence control |
| Cc1ccc2c(c1C)OCC[C@H]2Nc1nc(N)nc(C(C)(C)F)n1 [Compound 8.241] | very good herbicidal post-emergence activity | very good pre-emergence control |
| CCc1nc(N)nc(N[C@@H]2CCOc3c2ccc(C)c3C)n1 [Compound 8.242] | very good herbicidal post-emergence activity | very good pre-emergence control |
| COc1ccc2c(c1)[C@H](Nc1nc(N)nc(C(C)(C)F)n1)CC2 [Compound 8.243] | very good herbicidal post-emergence activity | very good pre-emergence control |
| CCc1nc(N)nc(N[C@@H]2CCc3ccc(OC)cc32)n1 [Compound 8.244] | very good herbicidal post-emergence activity | very good pre-emergence control |
| CCc1ccc2c(c1)[C@H](Nc1nc(N)nc(C(C)(C)F)n1)CC2 [Compound 8.245] | very good herbicidal post-emergence activity | very good pre-emergence control |
| CCc1ccc2c(c1)[C@H](Nc1nc(C)nc(N)n1)CC2 [Compound 8.246] | very good herbicidal post-emergence activity | very good pre-emergence control |
| CCc1ccc2c(c1)[C@H](Nc1nc(N)nc(C(C)C)n1)CC2 [Compound 8.247] | very good herbicidal post-emergence activity | very good pre-emergence control |
| CCc1ccc2c(c1)[C@H](Nc1nc(N)nc(CC)n1)CC2 [Compound 8.248] | very good herbicidal post-emergence activity | very good pre-emergence control |
| CCCc1nc(N)nc(N[C@@H]2CCc3ccc(CC)cc32)n1 [Compound 8.249] | very good herbicidal post-emergence activity | very good pre-emergence control |
| CCc1ccc2c(c1)[C@H](Nc1nc(N)nc(CCSC(F)(F)F)n1)CC2 [Compound 8.250] | very good herbicidal post-emergence activity | very good pre-emergence control |
| Cc1ccc2c(c1)[C@H](Nc1nc(N)nc(CCSC(F)(F)F)n1)CCC2 [Compound 8.251] | very good herbicidal post-emergence activity | very good pre-emergence control |
| Cc1cc(C)c2c(c1)[C@H](Nc1nc(N)nc(C(C)C)n1)CCC2 [Compound 8.252] | very good herbicidal post-emergence activity | very good pre-emergence control |
| COCc1nc(N)nc(N[C@@H]2CCCc3c(C)cc(C)cc32)n1 [Compound 8.253] | very good herbicidal post-emergence activity | very good pre-emergence control |
| Nc1nc(N[C@@H]2CCCc3ccccc32)nc(C(F)(F)F)n1 [Compound 8.254] | very good herbicidal post-emergence activity | very good pre-emergence control |
